“And” between values parts separate entries of the source, which are not always exact repeats. Equal entries are not always repeated. “Also recorded” adds a separate entry of the source. Each block holds one compound with its values, some of them ahead of it. Non-standard residues stand in square brackets, D forms with d. Residues, ends and D or L forms follow the SMILES beside them. dPhe(4-Cl) = N[C@H](Cc1ccc(Cl)cc1)C(=O)O; d2Nal = N[C@H](Cc1ccc2ccccc2c1)C(=O)O; dCit = NC(=O)NCCC[C@@H](N)C(=O)O; d3Pal = N[C@H](Cc1cccnc1)C(=O)O
Tests used:
[1] = Rat muscle experiment: cetrorelix content in the plasma; format: in vivo
Source text: (§1) In the further rat muscle experiments shown in Table 9, in addition to the residual content in the muscle, the cetrorelix content in the plasma was additionally determined.

[2] = Rat animal experiment: cetrorelix residual content in the muscle 168 h after injection; format: in vivo; conditions: for Cetrorelix content in the muscle (168 h), % of the dose: rat
Description: (§2) After reconstitution of these lyophilizates, the solutions (2.5 mg/ml of cetrorelix) are investgated in the following tests for aggregate formation and release behaviour: • Polarization microscopy (pol. mic.): days without aggregation. • Filterability in %: • Cetrorelix solutions are prepared according to a standardized procedure and filtered through 0.22 μm or 0.45 μm filters by means of centrifugation. The concentration of cetrorelix in the filtrate is determined by HPLC and indicated as a % value, based on the starting concentration before filtration (filterability in %). • in-vitro release form (RRS, release in Ringer's solution): • % released after 1 h and after 6 h. • The in-vitro release behaviour is determined at 37° C. in a flow procedure using Ringer's solution as medium. The concentration measurement is carried out by HPLC. Cetrorelix samples, corresponding to 10 mg of cetrorelix base, are weighed into the flow cell, mixed with 4 ml of water and stirred for 10 min.
as §1

[3] = Polarization microscopy: aggregation of cetrorelix solutions (days without aggregation); format: physicochemical
Description: By means of polarization microscopy, aggregation investigations were carried out on solutions of various cetrorelix salts without or with addition of excipients.
In the polarization light microscope with crossed polarizers, aggregated peptide solutions show images which are very similar to those of liquid-crystalline structures. In contrast to this, aggregate-free peptide solutions produce no such effects.
as §2, with “([…])” for “(2.5 mg/ml of cetrorelix)”

[4] = Optical appearance of cetrorelix acetate solutions with excipients; format: physicochemical
[5] = In-vitro release in Ringer's solution (RRS), flow procedure at 37° C.; format: physicochemical
Description: as §2, with “([…])” for “(2.5 mg/ml of cetrorelix)”

[6] = dose 1.5 mg/kg, inj. soln 3 mg/ml
[7] = Cremophor ® EL 5.00%, cetrorelix 2.5 mg/ml
[8] = Cremophor ® EL 10.00%, cetrorelix 2.5 mg/ml
[9] = Cremophor ® EL 20.00%, cetrorelix 2.5 mg/ml
[10] = Cremophor ® EL 20.00%, cetrorelix 5 mg/ml
[11] = Galacturonic acid 2.50%, cetrorelix 2.5 mg/ml, pH 2.6
[12] = Glucaric acid 2.50%, cetrorelix 2.5 mg/ml, pH 2.5
[13] = L-glutamic acid 0.80%, cetrorelix 2.5 mg/ml, pH 3.8
[14] = Solutol ® HS 15 5.00%, cetrorelix 2.5 mg/ml
[15] = Solutol ® HS 15 10.00%, cetrorelix 2.5 mg/ml
[16] = Solutol ® HS 15 20.00%, cetrorelix 2.5 mg/ml
[17] = cetrorelix 2.5 mg/ml, Kollidon 0%
[18] = cetrorelix 2.5 mg/ml, Kollidon 5%
[19] = cetrorelix 2.5 mg/ml, Kollidon 10%
[20] = cetrorelix 2.5 mg/ml, Kollidon 15%
[21] = cetrorelix 2.5 mg/ml, Kollidon 20%
[22] = cetrorelix 5 mg/ml, Kollidon 15%
[23] = cetrorelix 5 mg/ml, Kollidon 20%
[24] = conc. of cetrorelix from lyo 2.5 mg/ml
[25] = conc. of cetrorelix from lyo 5 mg/ml
[26] = dose 1.5 mg/kg, inj. soln 3 mg/ml, listed as Acetate
[27] = dose 3.0 mg/kg, inj. soln 15 mg/ml
[28] = conc. of cetrorelix from lyo 15 mg/ml

Compound: CC(=O)N[C@H](Cc1ccc2ccccc2c1)C(=O)N[C@H](Cc1ccc(Cl)cc1)C(=O)N[C@H](Cc1cccnc1)C(=O)N[C@@H](CO)C(=O)N[C@@H](Cc1ccc(O)cc1)C(=O)N[C@H](CCCNC(N)=O)C(=O)N[C@@H](CC(C)C)C(=O)N[C@@H](CCCNC(=N)N)C(=O)N1CCC[C@H]1C(=O)N[C@H](C)C(N)=O [Base, cetrorelix] (Ac-[d2Nal][dPhe(4-Cl)][d3Pal]SY[dCit]LRP[dA]-NH2)
- Cetrorelix content in the plasma, % of the dose [1, 6]: 122.2 % of the dose
- Cetrorelix content in the muscle (168 h), % of the dose [2, 6]: 27.2 % of the dose

Compound: CC(=O)N[C@H](Cc1ccc2ccccc2c1)C(=O)N[C@H](Cc1ccc(Cl)cc1)C(=O)N[C@H](Cc1cccnc1)C(=O)N[C@@H](CO)C(=O)N[C@@H](Cc1ccc(O)cc1)C(=O)N[C@H](CCCNC(N)=O)C(=O)N[C@@H](CC(C)C)C(=O)N[C@@H](CCCNC(=N)N)C(=O)N1CCC[C@H]1C(=O)N[C@H](C)C(N)=O [cetrorelix acetate] (Ac-[d2Nal][dPhe(4-Cl)][d3Pal]SY[dCit]LRP[dA]-NH2)
- Days without aggregation ([3]; 2.5 mg/ml cetrorelix acetate, gluconic acid in reconstitution medium 0%, pH 4.7): 1 days
- Days without aggregation ([3]; 2.5 mg/ml cetrorelix acetate, gluconic acid in reconstitution medium 0.0071%, pH 4.5): 2 days
- Days without aggregation ([3]; 2.5 mg/ml cetrorelix acetate, gluconic acid in reconstitution medium 0.071%, pH 3.7): 2 days
- Days without aggregation ([3]; 2.5 mg/ml cetrorelix acetate, gluconic acid in reconstitution medium 0.71%, pH 3.1): 12 days
- Aggregation (microscopy): yes, after ... days [3, 7]: 10 days
- Aggregation (microscopy): days without aggregation [3, 8]: ≧112 days
- Aggregation (microscopy): days without aggregation [3, 9]: ≧112 days
- Aggregation (microscopy): yes, after ... day [3, 10]: yes, after 1 day
- Aggregation (microscopy): days without aggregation [3, 11]: ≧12 days
- Aggregation (microscopy): days without aggregation [3, 12]: ≧12 days
- Aggregation (microscopy): yes, after ... days [3, 13]: yes, after 2 days
- Aggregation (microscopy): yes, after ... days [3, 14]: 14 days
- Aggregation (microscopy): days without aggregation [3, 15]: ≧112 days
- Aggregation (microscopy): days without aggregation [3, 16]: ≧112 days
- Days without aggregation ([3]; acetate salt, cetrorelix 2.5 mg/ml, glucuronic acid addition: no, pH 4.7): 0 days
- Days without aggregation ([3]; acetate salt, cetrorelix 2.5 mg/ml, glucuronic acid addition: yes, pH 3.0): >21 days
- Days without aggregation ([3]; acetate salt, cetrorelix 5 mg/ml, glucuronic acid addition: yes, pH 3.0): 0 days
- Days without aggregation with Kollidon ® 12 PF [3, 17]: 0 days
- Days without aggregation with Kollidon ® 17 PF [3, 17]: 0 days
- Days without aggregation with Kollidon ® 12 PF [3, 18]: 1 days
- Days without aggregation with Kollidon ® 17 PF [3, 18]: 2 days
- Days without aggregation with Kollidon ® 12 PF [3, 19]: 1 days
- Days without aggregation with Kollidon ® 17 PF [3, 19]: 2 days
- Days without aggregation with Kollidon ® 12 PF [3, 20]: 77 days
- Days without aggregation with Kollidon ® 17 PF [3, 20]: 63 days
- Days without aggregation with Kollidon ® 12 PF [3, 21]: 84 days
- Days without aggregation with Kollidon ® 17 PF [3, 21]: 98 days
- Days without aggregation with Kollidon ® 12 PF [3, 22]: 0 days
- Days without aggregation with Kollidon ® 17 PF [3, 22]: 1 days
- Days without aggregation with Kollidon ® 12 PF [3, 23]: 0 days
- Days without aggregation with Kollidon ® 17 PF [3, 23]: 1 days
- Aggregation-free duration ([3]; cetrorelix acetate 2.5 mg/ml, 10% of α-cyclodextrin): 7 days
- Aggregation-free duration ([3]; cetrorelix acetate 2.5 mg/ml, 20% of hydroxypropyl-β-cyclodextrin): 24 days
- Aggregation-free duration ([3]; cetrorelix acetate 5 mg/ml, 10% of α-cyclodextrin): 0 days
- Aggregation-free duration ([3]; cetrorelix acetate 5 mg/ml, 20% of hydroxypropyl-β-cyclodextrin): 7 days
- Aggregation-free duration ([3]; cetrorelix acetate 7.5 mg/ml, 10% of α-cyclodextrin): 0 days
- Aggregation-free duration ([3]; cetrorelix acetate 7.5 mg/ml, 20% of hydroxypropyl-β-cyclodextrin): 10 days
- Aggregation-free duration ([3]; cetrorelix acetate 10 mg/ml, 10% of α-cyclodextrin): 0 days
- Aggregation-free duration ([3]; cetrorelix acetate 10 mg/ml, 20% of hydroxypropyl-β-cyclodextrin): 2 days
- Aggregation-free duration ([3]; cetrorelix acetate 15 mg/ml, 20% of hydroxypropyl-β-cyclodextrin): 0 days
- Aggregation-free duration ([3]; cetrorelix acetate 15 mg/ml, 20% of γ-cyclodextrin): 0 days
- Pol. mic days without aggr. [3, 24]: 0 days
- Pol. mic days without aggr. [3, 25]: 0 days
- Appearance [4, 7]: clear
- Appearance [4, 8]: clear
- Appearance [4, 9]: clear
- Appearance [4, 10]: clear,; also recorded: viscose
- Appearance [4, 11]: clear
- Appearance [4, 12]: clear
- Appearance [4, 13]: clear
- Appearance [4, 14]: clear
- Appearance [4, 15]: clear
- Appearance [4, 16]: clear
- Cetrorelix content in the plasma, % of the dose [1, 26]: 92.2 % of the dose
- Cetrorelix content in the plasma, % of the dose [1, 27]: 28.7 % of the dose
- Cetrorelix content in the muscle (168 h), % of the dose [2, 26]: 55.1 % of the dose
- Cetrorelix content in the muscle (168 h), % of the dose [2, 27]: 56.5 % of the dose
- Rat % i.m. after 168 h ([2]; residual content in the muscle, % of dose, conc. of cetrorelix 2.5 mg/ml): ~55%
- RRS, [%] after 1 h [5, 24]: 12% and 13%
- RRS, [%] after 6 h [5, 24]: 24.5% and 35.9%
- RRS, [%] after 1 h [5, 25]: 10%
- RRS, [%] after 6 h [5, 25]: 35%

Compound: Citrate
- RRS, [%] after 1 h [5, 28]: 9%
- RRS, [%] after 6 h [5, 28]: 20.3%

Compound: Phosphate
- Cetrorelix content in the plasma, % of the dose ([1]; in vivo, 1.5 mg/kg): 22.6 % of the dose
- Cetrorelix content in the muscle (168 h), % of the dose ([2]; in vivo, 1.5 mg/kg): 32.9 % of the dose

Next, values leading:

- RRS, [%] after 1 h ([5]; bulk): 20%
- RRS, [%] after 6 h ([5]; bulk): 55.2%
Compound: Lactate

- Days without aggregation ([3]; 2.5 mg/ml cetrorelix gluconate, hydroxypropyl-β-cyclodextrin 20%): 189 days
- Days without aggregation ([3]; 2.5 mg/ml cetrorelix gluconate, hydroxypropyl-β-cyclodextrin […]): 91 days
- Days without aggregation ([3]; 2.5 mg/ml cetrorelix gluconate, α-cyclodextrin 5%): 1 days
- Days without aggregation ([3]; 2.5 mg/ml cetrorelix gluconate, α-cyclodextrin 10%): 140 days
- Days without aggregation ([3]; 2.5 mg/ml cetrorelix gluconate, γ-cyclodextrin 20%): 182 days
- Days without aggregation ([3]; 2.5 mg/ml cetrorelix gluconate, γ-cyclodextrin […]): 126 days
- Days without aggregation ([3]; cetrorelix 2.5 mg/ml, gluconic acid addition: yes, pH 3.0): >30 days
- Days without aggregation ([3]; cetrorelix 5 mg/ml, gluconic acid addition: no, pH 4.7): 1 days
- Days without aggregation ([3]; cetrorelix 5 mg/ml, gluconic acid addition: no, pH 4.8): 1 days
- Days without aggregation ([3]; cetrorelix 5 mg/ml, gluconic acid addition: yes, pH 3.6): 4 days
- Days without aggregation ([3]; cetrorelix 5 mg/ml, gluconic acid addition: yes, pH 3.8): 4 days
- Days without aggregation ([3]; cetrorelix 7.5 mg/ml, gluconic acid addition: no, pH 4.7): 0 days
- Days without aggregation ([3]; cetrorelix 7.5 mg/ml, gluconic acid addition: no, pH 4.8): 0 days
- Days without aggregation ([3]; cetrorelix 7.5 mg/ml, gluconic acid addition: yes, pH 3.4): 1 days
- Days without aggregation ([3]; cetrorelix 7.5 mg/ml, gluconic acid addition: yes, pH 3.7): 1 days
- Cetrorelix content in the plasma, % of the dose ([1]; in vivo, 1.5 mg/kg): 46.9 % of the dose
- Cetrorelix content in the muscle (168 h), % of the dose ([2]; in vivo, 1.5 mg/kg): 37.9 % of the dose
- RRS, [%] after 1 h [5, 24]: 18% and 11.3%
- RRS, [%] after 6 h [5, 24]: 45.3% and 46%
Compound: cetrorelix gluconate

- Days without aggregation ([3]; glucuronate salt, cetrorelix 2.5 mg/ml, glucuronic acid addition: no, pH 4.5): 3 days
- Days without aggregation ([3]; glucuronate salt, cetrorelix 2.5 mg/ml, glucuronic acid addition: yes, pH 2.9): >30 days
- Days without aggregation ([3]; glucuronate salt, cetrorelix 5 mg/ml, glucuronic acid addition: no, pH 4.6): 0 days
- Days without aggregation ([3]; glucuronate salt, cetrorelix 5 mg/ml, glucuronic acid addition: yes, pH 2.7): >30 days
- Cetrorelix content in the plasma, % of the dose ([1]; in vivo, 1.5 mg/kg): 78.6 % of the dose
- Cetrorelix content in the muscle (168 h), % of the dose ([2]; in vivo, 1.5 mg/kg): 16.5 % of the dose
- Cetrorelix content in the muscle (168 h), % of the dose ([2]; in vivo, 3 mg/kg): 18.8 % of the dose
Compound: cetrorelix glucuronate

Reference: patent publication US7696149B2, “Pharmaceutical administration form for peptides, process for its preparation, and use” (AEterna Zentaris GmbH, priority 2000, dated 2010)
